Assay results published in patent publication US9771352B2, “Hydroxyalkyl-substituted phenyltriazole derivatives and uses thereof” (BAYER PHARMA AKTIENGESELLSCHAFT, priority 2014, dated 2017).

Columns and labels:
human V1a receptor = molecular target: T1, human V1a receptor (Homo sapiens, UniProt P37288); assay: Cellular in vitro assay for determining vasopressin receptor activity, V1a receptor cell line (photoprotein luminescence); format: cell-based; settings: CHO cell line transfected with human V1a receptor; [Arg8]-vasopressin at EC50; compounds of the invention (Table 1A); read-out: IC50 hV1a
T1 construct: expressed in transfected cells; host or cells: CHO K1 (ATCC), also stably transfected with modified aequorin
T1 sequence (P37288 whole entry): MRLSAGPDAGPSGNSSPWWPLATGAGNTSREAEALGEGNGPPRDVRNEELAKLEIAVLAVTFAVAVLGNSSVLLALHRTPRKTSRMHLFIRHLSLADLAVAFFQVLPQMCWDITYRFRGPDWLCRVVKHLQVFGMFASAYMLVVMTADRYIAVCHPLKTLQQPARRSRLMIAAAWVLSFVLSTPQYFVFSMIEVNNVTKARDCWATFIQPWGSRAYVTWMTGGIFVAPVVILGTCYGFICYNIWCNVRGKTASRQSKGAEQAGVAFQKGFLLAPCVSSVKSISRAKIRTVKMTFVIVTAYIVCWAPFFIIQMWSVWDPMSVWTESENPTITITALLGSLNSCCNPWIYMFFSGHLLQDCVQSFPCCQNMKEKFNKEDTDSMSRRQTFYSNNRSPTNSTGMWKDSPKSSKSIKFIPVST
Procedure: (§1) The identification of agonists and antagonists of the V1a and V2 vasopressin receptors from humans, rats and dogs as well as the quantification of the activity of the compounds of the invention is carried out using recombinant cell lines. These cell lines originally derive from a hamster's ovary epithelial cell (Chinese Hamster Ovary, CHO K1, ATCC: American Type Culture Collection, Manassas, Va. 20108, USA). The test cell lines constitutively express the human, rat or dog V1a or V2 receptors. In case of the […] V1a receptors, cells are also stably transfected with a modified form of the calcium-sensitive photoproteins aequorin (human and rat V1a) or obelin (dog V1a), which, after reconstitution with the cofactor coelenterazine, emit light when there are increases in free calcium concentrations [Rizzuto R, Simpson A W, Brini M, Pozzan T, Nature 358, 325-327 (1992); Illarionov B A, Bondar V S, Illarionova V A, Vysotski E S, Gene 153 (2), 273-274 (1995)]. The resulting vasopressin receptor cells react to stimulation of the recombinantly expressed V1a receptors by intracellular release of calcium ions, which can be quantified by the resulting photoprotein luminescence. The Gs-coupled V2 receptors are stably transfected into cell lines expressing the gene for firefly luciferase under control of a CRE-responsible promoter. Activation of V2 receptors induces the activation of the CRE-responsive promoter via cAMP increase, thereby inducing the expression of firefly luciferase. The light emitted by photoproteins of V1a cell lines as well as the light emitted by firefly luciferase of V2 cell lines corresponds to the activation or inhibition of the respective vasopressin receptor. The bioluminescence of the cell lines is detected using a suitable luminometer [Milligan G, Marshall F, Rees S, Trends in Pharmacological Sciences 17, 235-237 (1996)].
On the day before the assay, the cells are plated out in culture medium (DMEM/F12, 2% FCS, 2 mM glutamine, 10 mM HEPES, 5 μg/ml coelenterazine) in 384-well microtiter plates and kept in a cell incubator (96% humidity, 5% v/v CO2, 37° C.). On the day of the assay, test compounds in various concentrations are placed for 10 minutes in the wells of the microtiter plate before the agonist [Arg^8]-vasopressin at EC50 concentration is added. The resulting light signal is measured immediately in the luminometer.
(§2) Table 1A below lists individual IC50 values for the compounds of the invention (including diastereomeric mixtures as well as separated, enantiopure diastereomers) that were obtained from cell lines transfected with the human V1a or V2 receptor: […]

human V2 receptor = molecular target: T2, human V2 receptor (Homo sapiens, UniProt P30518); assay: Cellular in vitro assay for determining vasopressin receptor activity, V2 receptor cell line (CRE-luciferase); format: cell-based; settings: CHO cell line transfected with human V2 receptor; [Arg8]-vasopressin at EC50; compounds of the invention (Table 1A); read-out: IC50 hV2
T2 construct: expressed in transfected cells; host or cells: CHO K1 (ATCC) expressing firefly luciferase under a CRE-responsive promoter
T2 sequence (P30518 whole entry): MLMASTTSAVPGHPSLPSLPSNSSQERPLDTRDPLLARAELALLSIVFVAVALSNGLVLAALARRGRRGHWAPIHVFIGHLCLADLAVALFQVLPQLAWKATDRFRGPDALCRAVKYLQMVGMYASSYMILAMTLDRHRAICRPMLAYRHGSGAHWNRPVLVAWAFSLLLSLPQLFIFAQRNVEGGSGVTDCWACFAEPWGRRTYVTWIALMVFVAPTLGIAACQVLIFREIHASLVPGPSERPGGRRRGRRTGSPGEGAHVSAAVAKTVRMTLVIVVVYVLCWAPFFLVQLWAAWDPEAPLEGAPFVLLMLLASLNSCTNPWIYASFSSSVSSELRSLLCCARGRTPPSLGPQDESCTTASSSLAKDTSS
Procedure: as §1
On the day before the assay, the cells are plated out in culture medium (DMEM/F12, 2% FCS, 2 mM glutamine, 10 mM HEPES) in 384-well microtiter plates and kept in a cell incubator (96% humidity, 5% v/v CO2, 37° C.). […] Upon addition of the cell lysis reagent Triton and the substrate luciferin, luminescence of firefly luciferase is measured in a luminometer.
as §2

## CC(O)c1nc(Cn2nc(-c3ccc(Cl)cc3)n(C[C@H](O)C(F)(F)F)c2=O)nn1-c1ccc(F)cc1Cl (single isomer, unassigned) [Example 36]
Human V1a receptor
  IC50: 0.8 nM
Human V2 receptor
  IC50: 2.8 nM

## CC(O)c1nc(Cn2nc(-c3ccc(Cl)cc3)n(C[C@H](O)C(F)(F)F)c2=O)nn1-c1cc(Cl)cc(Cl)c1 (mixture of isomers) [Example 46, 5-(4-Chlorophenyl)-2-({1-(3,5-dichlorophenyl)-5-[(1RS)-1-hydroxyethyl]-1H-1,2,4-triazol-3-yl}-methyl)-4-[(2S)-3,3,3-trifluoro-2-hydroxypropyl]-2,4-dihydro-3H-1,2,4-triazol-3-one]
Human V1a receptor
  IC50: 6.3 nM
Human V2 receptor
  IC50: 2.1 nM

## CC(O)c1nc(Cn2nc(-c3ccc(Cl)cc3)n(C[C@H](O)C(F)(F)F)c2=O)nn1-c1cccc(OC(F)F)c1 (mixture of isomers) [Example 55, 5-(4-Chlorophenyl)-2-({1-[3-(difluoromethoxy)phenyl]-5-[(1RS)-1-hydroxyethyl]-1H-1,2,4-triazol-3-yl}methyl)-4-[(2S)-3,3,3-trifluoro-2-hydroxypropyl]-2,4-dihydro-3H-1,2,4-triazol-3-one]
Human V1a receptor
  IC50: 14.8 nM
Human V2 receptor
  IC50: 4.2 nM

## CC(O)c1nc(Cn2nc(-c3ccc(Cl)cc3)n(C[C@H](O)C(F)(F)F)c2=O)nn1-c1cccc(Cl)c1F (mixture of isomers) [Example 52, 2-({1-(3-Chloro-2-fluorophenyl)-5-[(1RS)-1-hydroxyethyl]-1H-1,2,4-triazol-3-yl}methyl)-5-(4-chlorophenyl)-4-[(2S)-3,3,3-trifluoro-2-hydroxypropyl]-2,4-dihydro-3H-1,2,4-triazol-3-one]
Human V1a receptor
  IC50: 3.9 nM
Human V2 receptor
  IC50: 0.4 nM

## COc1ccc(F)cc1-n1nc(Cn2nc(-c3ccc(Cl)cc3)n(C[C@H](O)C(F)(F)F)c2=O)nc1C(C)O (single isomer, unassigned) [Example 39]
Human V1a receptor
  IC50: 1.5 nM
Human V2 receptor
  IC50: 3.5 nM

## CC(O)c1nc(Cn2nc(-c3ccc(Cl)cc3)n(C[C@H](O)C(F)(F)F)c2=O)nn1-c1ccc(F)c(Cl)c1 (mixture of isomers) [Example 43, 2-({1-(3-Chloro-4-fluorophenyl)-5-[(1RS)-1-hydroxyethyl]-1H-1,2,4-triazol-3-yl}methyl)-5-(4-chlorophenyl)-4-[(2S)-3,3,3-trifluoro-2-hydroxypropyl]-2,4-dihydro-3H-1,2,4-triazol-3-one]
Human V1a receptor
  IC50: 6.2 nM
Human V2 receptor
  IC50: 1.2 nM

## CC(O)c1nc(Cn2nc(-c3ccc(Cl)cc3)n(C[C@H](O)C(F)(F)F)c2=O)nn1-c1cccc(F)c1 (mixture of isomers) [Example 75, 5-(4-Chlorophenyl)-2-({1-(3-fluorophenyl)-5-[(1RS)-1-hydroxyethyl]-1H-1,2,4-triazol-3-yl}-methyl)-4-[(2S)-3,3,3-trifluoro-2-hydroxypropyl]-2,4-dihydro-3H-1,2,4-triazol-3-one]
Human V1a receptor
  IC50: 2.9 nM
Human V2 receptor
  IC50: 6.6 nM

## CC(O)c1nc(Cn2nc(-c3ccc(Cl)cc3)n(C[C@H](O)C(F)(F)F)c2=O)nn1-c1cc(F)cc(F)c1 (single isomer, unassigned) [Example 27]
Human V1a receptor
  IC50: 43.7 nM
Human V2 receptor
  IC50: 7.7 nM

## O=c1n(Cc2nc(CO)n(-c3ccccc3C(F)(F)F)n2)nc(-c2ccc(Cl)cc2)n1C[C@H](O)C(F)(F)F [Example 8, 5-(4-Chlorophenyl)-2-({5-(hydroxymethyl)-1-[2-(trifluoromethyl)phenyl]-1H-1,2,4-triazol-3-yl}-methyl)-4-[(2S)-3,3,3-trifluoro-2-hydroxypropyl]-2,4-dihydro-3H-1,2,4-triazol-3-one]
Human V1a receptor
  IC50: 1.2 nM
Human V2 receptor
  IC50: 10.7 nM

## CC(O)c1nc(Cn2nc(-c3ccc(Cl)cc3)n(C[C@H](O)C(F)(F)F)c2=O)nn1-c1cccc(Cl)c1 (mixture of isomers) [Example 78, 5-(4-Chlorophenyl)-2-({1-(3-chlorophenyl)-5-[(1RS)-1-hydroxyethyl]-1H-1,2,4-triazol-3-yl}-methyl)-4-[(2S)-3,3,3-trifluoro-2-hydroxypropyl]-2,4-dihydro-3H-1,2,4-triazol-3-one]
Human V1a receptor
  IC50: 10.4 nM
Human V2 receptor
  IC50: 3.1 nM

## CC(O)c1nc(Cn2nc(-c3ccc(Cl)cc3)n(C[C@H](O)C(F)(F)F)c2=O)nn1-c1cccc(C(F)F)c1 (mixture of isomers) [Example 19, 5-(4-Chlorophenyl)-2-({1-[3-(difluoromethyl)phenyl]-5-[(1RS)-1-hydroxyethyl]-1H-1,2,4-triazol-3-yl}methyl)-4-[(2S)-3,3,3-trifluoro-2-hydroxypropyl]-2,4-dihydro-3H-1,2,4-triazol-3-one]
Human V1a receptor
  IC50: 12.4 nM
Human V2 receptor
  IC50: 1.4 nM

## CC(O)c1nc(Cn2nc(-c3ccc(Cl)cc3)n(C[C@H](O)C(F)(F)F)c2=O)nn1-c1ccccc1 (single isomer, unassigned) [Example 18]
Human V1a receptor
  IC50: 14.1 nM
Human V2 receptor
  IC50: 8.6 nM

## COc1ccccc1-n1nc(Cn2nc(-c3ccc(Cl)cc3)n(C[C@H](O)C(F)(F)F)c2=O)nc1C(C)O (single isomer, unassigned) [Example 11]
Human V1a receptor
  IC50: 0.4 nM
Human V2 receptor
  IC50: 0.3 nM

## CC(O)c1nc(Cn2nc(-c3ccc(Cl)cc3)n(C[C@H](O)C(F)(F)F)c2=O)nn1-c1cccc(Cl)c1Cl (mixture of isomers) [Example 61, 5-(4-Chlorophenyl)-2-({1-(2,3-dichlorophenyl)-5-[(1RS)-1-hydroxyethyl]-1H-1,2,4-triazol-3-yl}-methyl)-4-[(2S)-3,3,3-trifluoro-2-hydroxypropyl]-2,4-dihydro-3H-1,2,4-triazol-3-one]
Human V1a receptor
  IC50: 3.2 nM
Human V2 receptor
  IC50: 0.2 nM

## C[C@@H](O)c1nc(Cn2nc(-c3ccc(Cl)cc3)n(C[C@H](O)C(F)(F)F)c2=O)nn1-c1cccc(F)c1 [Example 77, 5-(4-Chlorophenyl)-2-({1-(3-fluorophenyl)-5-[(1R)-1-hydroxyethyl]-1H-1,2,4-triazol-3-yl}-methyl)-4-[(2S)-3,3,3-trifluoro-2-hydroxypropyl]-2,4-dihydro-3H-1,2,4-triazol-3-one]
Human V1a receptor
  IC50: 12.5 nM
Human V2 receptor
  IC50: 13.5 nM

## CCc1ccccc1-n1nc(Cn2nc(-c3ccc(Cl)cc3)n(C[C@H](O)C(F)(F)F)c2=O)nc1C(C)O (mixture of isomers) [Example 31, 5-(4-Chlorophenyl)-2-({1-(2-ethylphenyl)-5-[(1RS)-1-hydroxyethyl]-1H-1,2,4-triazol-3-yl}-methyl)-4-[(2S)-3,3,3-trifluoro-2-hydroxypropyl]-2,4-dihydro-3H-1,2,4-triazol-3-one]
Human V1a receptor
  IC50: 1.6 nM
Human V2 receptor
  IC50: 0.9 nM

## CC(O)c1nc(Cn2nc(-c3ccc(Cl)cc3)n(C[C@H](O)C(F)(F)F)c2=O)nn1-c1cccc(F)c1Cl (single isomer, unassigned) [Example 68]
Human V1a receptor
  IC50: 3.3 nM
Human V2 receptor
  IC50: 1.3 nM

## CC(O)c1nc(Cn2nc(-c3ccc(Cl)cc3)n(C[C@H](O)C(F)(F)F)c2=O)nn1-c1cccc(F)c1Cl (single isomer, unassigned) [Example 67]
Human V1a receptor
  IC50: 2.1 nM
Human V2 receptor
  IC50: 2.7 nM

## O=c1n(Cc2nc(CO)n(-c3cc(F)ccc3Cl)n2)nc(-c2ccc(Cl)cc2)n1C[C@H](O)C(F)(F)F [Example 9, 2-{[1-(2-Chloro-5-fluorophenyl)-5-(hydroxymethyl)-1H-1,2,4-triazol-3-yl]methyl}-5-(4-chlorophenyl)-4-[(2S)-3,3,3-trifluoro-2-hydroxypropyl]-2,4-dihydro-3H-1,2,4-triazol-3-one]
Human V1a receptor
  IC50: 0.4 nM
Human V2 receptor
  IC50: 2.3 nM

## CC(O)c1nc(Cn2nc(-c3ccc(Cl)cc3)n(C[C@H](O)C(F)(F)F)c2=O)nn1-c1cccc(C(F)F)c1 (single isomer, unassigned) [Example 20]
Human V1a receptor
  IC50: 3.8 nM
Human V2 receptor
  IC50: 0.8 nM

## CC(O)c1nc(Cn2nc(-c3ccc(Cl)cc3)n(C[C@H](O)C(F)(F)F)c2=O)nn1-c1cc(F)ccc1Cl (single isomer, unassigned) [Example 60]
Human V2 receptor
  IC50: 5.2 nM

## CC(O)c1nc(Cn2nc(-c3ccc(Cl)cc3)n(C[C@H](O)C(F)(F)F)c2=O)nn1-c1cc(F)ccc1Cl (single isomer, unassigned) [Example 59]
Human V2 receptor
  IC50: 2.4 nM
